# Data: US6262064A, “Octahydrobenzo[f]quinoline-based receptor agonists and antagonists” (priority 1999, dated 2001)
# Where two headings read alike, the source gives them in different places.
# Assays:
# 5HT3 serotonin receptor = test: Serotonin (5HT3) binding assay ([3H]GR65630, NIE-115 neuroblastoma cells)
# Experimental: The binding affinities of the compositions of this invention were assayed for various receptors. In these assays, the binding reaction was initiated by the addition of varying concentrations of the potential binding composition and a radioligand to an appropriate tissue. The assay was then incubated to allow binding. Binding was then terminated by dilution of the assay with a cold buffer, followed by rapid vacuum filtration onto Whatman GI/C filters that were presoaked in 0.1% polyethylene imine for at least 3 hours. Radioactivity trapped onto the filters was determined and compared to control values in order to ascertain any interactions of test compounds with the binding sites.
# Incubation was conducted in 20 mM HEPES (pH 7.4) containing 150 mM NaCl at 25° C. for 30 minutes. The radioligand used was [^3 H]GR65630 (30-50 Ci/mmol). The final ligand concentration was 0.7 nM.
# beta-adrenergic receptor = test: Beta-adrenergic (non-selective) binding assay ([3H]DHA); parameters: species or system rat
# D1 dopamine receptor = target: T1, D1 dopamine receptor (Rattus norvegicus, UniProt P18901); test: Dopamine D1 binding assay ([3H]SCH 23390); conditions: Table III; rat striatal membranes; read-out: D1 receptor binding affinity Ki
# T1 construct: rat striatal membranes; from tissue; host or cells: rat striatum membranes
# T1 sequence (P18901 whole entry): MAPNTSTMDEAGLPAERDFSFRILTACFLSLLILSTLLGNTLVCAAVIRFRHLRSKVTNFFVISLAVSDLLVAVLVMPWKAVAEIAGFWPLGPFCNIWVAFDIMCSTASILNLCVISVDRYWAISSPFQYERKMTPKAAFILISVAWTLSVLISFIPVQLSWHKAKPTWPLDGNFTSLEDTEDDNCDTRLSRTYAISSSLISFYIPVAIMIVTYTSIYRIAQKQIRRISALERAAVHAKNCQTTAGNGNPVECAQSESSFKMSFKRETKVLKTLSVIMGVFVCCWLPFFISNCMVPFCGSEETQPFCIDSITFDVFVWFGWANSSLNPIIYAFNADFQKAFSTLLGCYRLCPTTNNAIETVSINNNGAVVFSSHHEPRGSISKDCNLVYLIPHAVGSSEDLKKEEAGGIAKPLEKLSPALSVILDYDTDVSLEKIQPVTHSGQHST
# Experimental: The final radioligand concentration was 0.5 nM.
# D2 dopamine receptor = target: T2, D2 dopamine receptor (Rattus norvegicus, UniProt P61169); test: Dopamine D2 binding assay ([3H]Sulpiride); conditions: for dopamine receptor binding affinity / selectivity for the D2 over the D1 dopamine receptor: in words
# T2 construct: rat striatal membranes; from tissue; host or cells: rat striatum membranes
# T2 sequence (P61169 whole entry): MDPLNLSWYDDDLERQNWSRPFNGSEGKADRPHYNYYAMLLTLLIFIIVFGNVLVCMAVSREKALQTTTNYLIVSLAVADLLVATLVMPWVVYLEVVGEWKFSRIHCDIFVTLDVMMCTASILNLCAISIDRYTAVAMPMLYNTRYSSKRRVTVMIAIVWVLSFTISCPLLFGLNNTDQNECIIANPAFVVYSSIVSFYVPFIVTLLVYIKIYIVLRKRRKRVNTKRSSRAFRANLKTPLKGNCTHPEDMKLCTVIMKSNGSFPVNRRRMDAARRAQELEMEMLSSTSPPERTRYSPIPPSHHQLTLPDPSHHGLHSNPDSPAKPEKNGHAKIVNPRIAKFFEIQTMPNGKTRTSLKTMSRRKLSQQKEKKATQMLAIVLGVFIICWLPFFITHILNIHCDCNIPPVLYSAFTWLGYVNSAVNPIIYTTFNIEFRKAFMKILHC
# Experimental: The final ligand concentration was 0.5 nM.
# [1] = target: alpha2-adrenergic receptor; test: Alpha2-adrenergic (non-selective) binding assay ([3H]RX 781094); parameters: species or system rat; conditions: for Ki: Table III, rat cortical membranes, read-out: α2 receptor binding affinity Ki; for α2 receptor binding affinity: in words
# 5HT1A serotonin receptor = target: T3, 5HT1A serotonin receptor (Bos taurus, UniProt F6Q2H9); test: Serotonin (5HT1A) binding assay ([3H]-8-OH-DPAT); parameters: species or system bovine; conditions: for Ki: Table III, bovine hippocampus; for 5HT1A serotonin receptor binding affinity: in words
# T3 construct: bovine hippocampus; from tissue; host or cells: bovine hippocampus
# T3 sequence (F6Q2H9 1-422): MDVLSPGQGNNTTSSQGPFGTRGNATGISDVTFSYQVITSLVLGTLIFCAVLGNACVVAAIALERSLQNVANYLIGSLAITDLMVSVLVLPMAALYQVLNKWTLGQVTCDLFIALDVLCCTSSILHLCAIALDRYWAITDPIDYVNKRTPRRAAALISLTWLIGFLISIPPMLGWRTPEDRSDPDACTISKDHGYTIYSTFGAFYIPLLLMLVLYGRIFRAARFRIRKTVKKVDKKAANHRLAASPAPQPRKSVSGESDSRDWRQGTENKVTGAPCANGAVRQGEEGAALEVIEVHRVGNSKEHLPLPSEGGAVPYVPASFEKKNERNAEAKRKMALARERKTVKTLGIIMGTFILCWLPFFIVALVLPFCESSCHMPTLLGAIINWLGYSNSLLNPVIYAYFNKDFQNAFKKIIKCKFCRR
# 5HT2 serotonin receptor = target: T4, 5HT2 serotonin receptor (Rattus norvegicus, UniProt P14842); test: Serotonin (5HT2) binding assay ([3H]Ketanserin)
# T4 construct: rat cortical membranes; from tissue; host or cells: rat cortex membranes
# T4 sequence (P14842 whole entry): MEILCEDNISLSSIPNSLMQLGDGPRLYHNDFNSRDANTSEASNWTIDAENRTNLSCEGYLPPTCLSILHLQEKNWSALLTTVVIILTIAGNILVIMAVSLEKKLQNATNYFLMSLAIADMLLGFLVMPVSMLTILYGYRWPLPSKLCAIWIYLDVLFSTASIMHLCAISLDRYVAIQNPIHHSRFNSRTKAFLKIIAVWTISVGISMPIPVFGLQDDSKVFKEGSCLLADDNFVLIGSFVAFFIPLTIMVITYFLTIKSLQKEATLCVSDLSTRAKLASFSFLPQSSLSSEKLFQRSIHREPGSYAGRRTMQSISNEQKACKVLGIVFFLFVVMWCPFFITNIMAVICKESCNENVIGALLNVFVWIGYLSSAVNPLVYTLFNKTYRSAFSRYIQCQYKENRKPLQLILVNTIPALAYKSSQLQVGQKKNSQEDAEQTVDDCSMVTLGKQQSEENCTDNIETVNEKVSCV
# Experimental: The final ligand concentration was 1.0 nM.
# [2] = test system: alpha1-adrenergic receptor; conditions: for α1 receptor binding affinity: in words; for Ki: read-out: α1 receptor binding affinity Ki, Table III, rat forebrain membranes
# Experimental: In these assays, the binding reaction was initiated by the addition of varying concentrations of the potential binding composition and a radioligand to an appropriate tissue. The assay was then incubated to allow binding. Binding was then terminated by dilution of the assay with a cold buffer, followed by rapid vacuum filtration onto Whatman GI/C filters that were presoaked in 0.1% polyethylene imine for at least 3 hours. Radioactivity trapped onto the filters was determined and compared to control values in order to ascertain any interactions of test compounds with the binding sites. Binding affinity analyses were performed by Novascreen, Division of the Adheron Corporation, Hanover, Md.
# Incubation was conducted in 50 mM TRIS-HCl (pH 7.7) at 25° C. for 60 minutes. […] The final ligand concentration was 0.5 nm.
# 5HT1 serotonin receptor = test: Serotonin (5HT1) binding assay
# Experimental: In these assays, the binding reaction was initiated by the addition of varying concentrations of the potential binding composition and a radioligand to an appropriate tissue. The assay was then incubated to allow binding. Binding was then terminated by dilution of the assay with a cold buffer, followed by rapid vacuum filtration onto Whatman GI/C filters that were presoaked in 0.1% polyethylene imine for at least 3 hours. Radioactivity trapped onto the filters was determined and compared to control values in order to ascertain any interactions of test compounds with the binding sites.
# Incubation was conducted in 50 mM TRIS-HCl (pH 7.4) at 45 minutes for 37° C. The radioligand used was [^3 H]Hydroxytryptamine binoxalate (15-30 Ci/mmol). The final ligand concentration was 3.0 nM.
# D2 receptor = target: T5, D2 receptor (Rattus norvegicus, UniProt P61169); test: D2 receptor agonist evaluation (membrane binding with and without Gpp(NH)p)
# T5 construct: expressed in transfected cells
# T5 sequence (P61169 whole entry): as the sequence (P61169 whole entry) above
# Experimental: To determine the D2, D3 or D4 receptor selectivity, competition binding assays were performed using membranes from fibroblast cell lines transfected with D2444 (rat), D3 (human) or D4 (rat) receptors. All cell lines were maintained in Dulbecco's modified Eagle's media (DMEM) supplemented with 10 % fetal bovine serum at 37° C. with 5% CO2. Transfected cells were maintained in DMEM containing 300 μg/mL of the antibiotic G418 (Gibco).
# To determine whether or not compounds of this invention were D2 receptor agonists, a membrane binding assay, utilizing the D2 cell line described in Example 26, was performed in the presence and absence of the non-hydrolyzable guanine nucleotide (GTP analogue) Gpp(NH)p.
# [3] = read-out: Ki of reference compounds, 5HT3, Table X
# [4] = Table VI, read-out: Ki of reference compounds, beta-adrenergic
# [5] = 5-HT1A receptor binding affinity Ki
# [6] = 5-HT2 receptor binding affinity Ki
# [7] = read-out: 5-HT1 receptor binding affinity Ki, Table III, rat cortical membranes
Ki (beta-adrenergic receptor; [4]),SMILES,Ki (5HT3 serotonin receptor; [3]),Ki (D2 dopamine receptor),dopamine receptor binding affinity (D2 dopamine receptor),selectivity for the D2 over the D1 dopamine receptor (D2 dopamine receptor),Ki [1],α2 receptor binding affinity [1],Ki [2],Ki (5HT1 serotonin receptor; [7]),further results
,c1ccc2nc(N3CCNCC3)ccc2c1 [Quipazin],1.5 nM,,,,,,,,
3.5 nM,C=CCc1ccccc1OCC(O)CNC(C)C (stereo not drawn) [Alprenolol],,,,,,,,,"Ki (beta-adrenergic receptor; assay characterization, read-out: Ki characterizing the beta assay): 1.74 nM"
45 nM,COCCc1ccc(OCC(O)CNC(C)C)cc1 (stereo not drawn) [Metoprotol],,,,,,,,,
,"Oc1cccc2c1CC[C@@H]1[C@@H]2CCCN1CCc1ccccc1 (single isomer, unassigned) [trans-(-)-25, trans-(-)-7-hydroxy-4-phenethyl-1,2,3,4a,5,6,10b-octahydrobenzo[f]quinoline]",,0.9 nM,good dopamine receptor binding affinities,highly selective for the D2 dopamine receptor over the D1 dopamine receptor,2.1 nM,high binding affinities for the α2 receptor,4.8 nM,240 nM,Ki (D1 dopamine receptor): 3600 nM; Ki (5HT1A serotonin receptor; [5]): 11 nM; 5HT1A serotonin receptor binding affinity (5HT1A serotonin receptor): high binding affinities for the 5HT1A serotonin receptor; Ki (5HT2 serotonin receptor; [6]): 410 nM; α1 receptor binding affinity [2]: high binding affinities for the α1 receptor; 5HT1 serotonin receptor binding affinity (5HT1 serotonin receptor; in words): high binding affinity for the 5HT1 serotonin receptor
,"Oc1ccc2c(c1O)CC[C@H]1[C@H]2CCCN1CCc1ccccc1 (single isomer, unassigned) [trans-(-)-9, Trans-(-)-7,8-Dihydroxy-4-phenethyl-1,2,3,4,4a,5,6, 10b-octahydrobenzo[f]quinoline]",,0.38 nM,good dopamine receptor binding affinities,highly selective for the D2 dopamine receptor over the D1 dopamine receptor,9 nM,high binding affinities for the α2 receptor,130 nM,3300 nM,Ki (D1 dopamine receptor): 3500 nM; Ki (5HT1A serotonin receptor; [5]): 67 nM; 5HT1A serotonin receptor binding affinity (5HT1A serotonin receptor): high binding affinities for the 5HT1A serotonin receptor; Ki (5HT2 serotonin receptor): 26 nM; 5HT2 serotonin receptor binding affinity (5HT2 serotonin receptor; in words): high binding affinities for the 5HT2 serotonin receptor
,CCN(CC)CCNC(=O)c1cc(Cl)c(N)cc1OC [Metoclopramide],191 nM,,,,,,,,
,CN1[C@@H]2CC[C@H]1C[C@@H](OC(=O)c1cc(Cl)cc(Cl)c1)C2 [MDL-72222],7.2 nM,,,,,,,,"Ki (5HT3 serotonin receptor; read-out: Ki characterizing the 5HT3 assay, assay characterization): 0.3 nM"
,"Oc1cccc2c1CC[C@H]1[C@H]2CCCN1CCc1ccccc1 (relative stereo) [trans-25, Trans-7-hydroxy-4-phenethyl-1,2,3,4,4a,5,6,10b-octahydrobenzo[f]quinoline]",,0.87 nM,good dopamine receptor binding affinities,highly selective for the D2 dopamine receptor over the D1 dopamine receptor,0.22 nM,high binding affinities for the α2 receptor,4.5 nM,470 nM,"Ki (D1 dopamine receptor): 5100 nM; 5HT2 serotonin receptor binding affinity (5HT2 serotonin receptor): high binding affinities for the 5HT2 serotonin receptor; Ki (5HT2 serotonin receptor; [6]): 27 nM; Ki (D2 receptor): 37 ± 9 nM; Ratio of +:- Gpp(NH)p (D2 receptor; Table XV): 34.7; Ki (D2 receptor; Table XV, with Gpp(NH)p, read-out: D2 receptor binding Ki with Gpp(NH)p): 1270 ± 1640 nM; D2 agonist/antagonist assessment (D2 receptor; in words): appear to be agonists; effect of GTP on D2 receptor binding (D2 receptor; in words): D2 receptor binding was enhanced by the addition of GTP; α1 receptor binding affinity [2]: high binding affinities for the α1 receptor"
,Oc1ccc2c(c1O)CC[C@@H]1[C@@H]2CCCN1CCc1cccs1 (relative stereo) [trans-33],,57 nM,good dopamine receptor binding affinities,highly selective for the D2 dopamine receptor over the D1 dopamine receptor,19 nM,high binding affinities for the α2 receptor,180 nM,1800 nM,Ki (5HT1A serotonin receptor; read-out: 5-HT1A receptor binding affinity Ki): 190 nM; 5HT1A serotonin receptor binding affinity (5HT1A serotonin receptor): high binding affinities for the 5HT1A serotonin receptor; Ki (5HT2 serotonin receptor): 100 nM
,"NCCc1c[nH]c2ccc(O)cc12 [Serotonin, reference compound]",18.7 nM,,,,,,,,"Ki (5HT1 serotonin receptor; read-out: Ki characterizing the 5HT1 assay, assay characterization): 2.8 nM; Ki (5HT1 serotonin receptor; read-out: Ki of reference compounds, 5HT1, Table VII): 4.6 nM"
2880 nM,CC(C)(C)NCC(O)c1ccc(O)c(CO)c1 (stereo not drawn) [Albuterol],,,,,,,,,

SMILES,Ki (beta-adrenergic receptor; [4]),Ki (5HT3 serotonin receptor; [3]),Ki (D2 dopamine receptor),dopamine receptor binding affinity (D2 dopamine receptor),selectivity for the D2 over the D1 dopamine receptor (D2 dopamine receptor),Ki [1],α2 receptor binding affinity [1],Ki [2],Ki (5HT1 serotonin receptor; [7]),further results
CC(C)NCC(O)COc1cccc2[nH]ccc12 (stereo not drawn) [Pindolol],1.1 nM,,,,,,,,,
